In brackets after ≈: the same amount, converted by molar mass. Each block holds one compound with its values, some of them ahead of it.
How the values were obtained:
Assay in all cases: in vitro antibacterial evaluation, MIC by broth dilution
Type in all cases: cell-based
[1] = system: Enterococcus sp.; conditions: broth dilution, 18 hours at 35° C.
Outline: (§1)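 Read-out: the lowest concentration at which the test strain fails to grow. Serial dilutions (64-0.06 μg/mL) in Muller-Hinton II […], 5×10^5 CFU/mL inoculum, NCCLS M7-A2 procedure.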

[2] = system: Staphylococcus sp.; conditions: broth dilution, 18 hours at 35° C.
Outline: as §1

[3] = system: Streptococcus sp.; conditions: broth dilution, 18 hours at 35° C.
Outline: as §1

[4] = system: Escherichia coli; conditions: 18 hours at 35° C.

MIC Enterococcus avium (GC 4558) [1]: 64 mg/L (≈ 43.8 µM)
MIC Enterococcus faecalis (ATCC 29212) [1]: 128 mg/L (≈ 87.7 µM)
MIC Enterococcus faecalis (GC 2242) [1]: 128 mg/L (≈ 87.7 µM)
MIC Enterococcus faecalis (GC 2691) [1]: 128 mg/L (≈ 87.7 µM)
MIC Enterococcus faecalis (GC 3059) [1]: 128 mg/L (≈ 87.7 µM)
MIC Enterococcus faecalis (GC 4552) [1]: 128 mg/L (≈ 87.7 µM)
MIC Enterococcus faecalis (GC 4553) [1]: 128 mg/L (≈ 87.7 µM)
MIC Enterococcus faecalis (GC 4554) [1]: >128 mg/L
MIC Enterococcus faecalis (GC 6189) [1]: 128 mg/L (≈ 87.7 µM)
MIC Enterococcus faecium (GC 2243) [1]: 128 mg/L (≈ 87.7 µM)
MIC Enterococcus faecium (GC 4556) [1]: 128 mg/L (≈ 87.7 µM)
MIC Enterococcus faecium (GC 4557) [1]: 32 mg/L (≈ 21.9 µM)
MIC Enterococcus faecalis (ATCC 29212) ([1]; strain ATCC 29212): 128 mg/L (≈ 87.7 µM)
MIC Enterococcus faecalis (GC 2242) ([1]; strain GC 2242): 128 mg/L (≈ 87.7 µM)
MIC Enterococcus faecium (GC 2243) ([1]; strain GC 2243): 128 mg/L (≈ 87.7 µM)
MIC Enterococcus faecalis (GC 2691) ([1]; strain GC 2691): 128 mg/L (≈ 87.7 µM)
MIC Enterococcus faecalis (GC 3059) ([1]; strain GC 3059): 128 mg/L (≈ 87.7 µM)
MIC Enterococcus faecalis (GC 4552) ([1]; strain GC 4552): 128 mg/L (≈ 87.7 µM)
MIC Enterococcus faecalis (GC 4553) ([1]; strain GC 4553): 128 mg/L (≈ 87.7 µM)
MIC Enterococcus faecalis (GC 4554) ([1]; strain GC 4554): >128 mg/L
MIC Enterococcus faecium (GC 4556) ([1]; strain GC 4556): 128 mg/L (≈ 87.7 µM)
MIC Enterococcus faecium (GC 4557) ([1]; strain GC 4557): 32 mg/L (≈ 21.9 µM)
MIC Enterococcus avium (GC 4558) ([1]; strain GC 4558): 64 mg/L (≈ 43.8 µM)
MIC Enterococcus faecalis (GC 6189) ([1]; strain GC 6189): 128 mg/L (≈ 87.7 µM)
MIC Coagulase Negative Staphylococcus (GC 4547) [2]: 64 mg/L (≈ 43.8 µM)
MIC Coagulase Negative Staphylococcus (GC 4548) [2]: 64 mg/L (≈ 43.8 µM)
MIC Coagulase Negative Staphylococcus (GC 4549) [2]: 32 mg/L (≈ 21.9 µM)
MIC Coagulase Negative Staphylococcus (GC 4551) [2]: 64 mg/L (≈ 43.8 µM)
MIC Coagulase Negative Staphylococcus (GC 6257) [2]: 64 mg/L (≈ 43.8 µM)
MIC Staphylococcus aureus (ATCC 29213) [2]: 64 mg/L (≈ 43.8 µM)
MIC Staphylococcus aureus (GC 1131) [2]: 128 mg/L (≈ 87.7 µM)
MIC Staphylococcus aureus (GC 3051) [2]: 64 mg/L (≈ 43.8 µM)
MIC Staphylococcus aureus (GC 3053) [2]: 128 mg/L (≈ 87.7 µM)
MIC Staphylococcus aureus (GC 4541) [2]: 64 mg/L (≈ 43.8 µM)
MIC Staphylococcus aureus (GC 4542) [2]: 64 mg/L (≈ 43.8 µM)
MIC Staphylococcus aureus (GC 4544) [2]: 64 mg/L (≈ 43.8 µM)
MIC Staphylococcus aureus (GC 4545) [2]: 64 mg/L (≈ 43.8 µM)
MIC Staphylococcus aureus-SMITH (GC 4543) [2]: 64 mg/L (≈ 43.8 µM)
MIC Staphylococcus aureus (ATCC 29213) ([2]; strain ATCC 29213): 64 mg/L (≈ 43.8 µM)
MIC Staphylococcus aureus (GC 1131) ([2]; strain GC 1131): 128 mg/L (≈ 87.7 µM)
MIC Staphylococcus aureus (GC 3051) ([2]; strain GC 3051): 64 mg/L (≈ 43.8 µM)
MIC Staphylococcus aureus (GC 3053) ([2]; strain GC 3053): 128 mg/L (≈ 87.7 µM)
MIC Staphylococcus aureus (GC 4541) ([2]; strain GC 4541): 64 mg/L (≈ 43.8 µM)
MIC Staphylococcus aureus (GC 4542) ([2]; strain GC 4542): 64 mg/L (≈ 43.8 µM)
MIC Staphylococcus aureus-SMITH (GC 4543) ([2]; strain GC 4543): 64 mg/L (≈ 43.8 µM)
MIC Staphylococcus aureus (GC 4544) ([2]; strain GC 4544): 64 mg/L (≈ 43.8 µM)
MIC Staphylococcus aureus (GC 4545) ([2]; strain GC 4545): 64 mg/L (≈ 43.8 µM)
MIC Coagulase Negative Staphylococcus (GC 4547) ([2]; strain GC 4547): 64 mg/L (≈ 43.8 µM)
MIC Coagulase Negative Staphylococcus (GC 4548) ([2]; strain GC 4548): 64 mg/L (≈ 43.8 µM)
MIC Coagulase Negative Staphylococcus (GC 4549) ([2]; strain GC 4549): 32 mg/L (≈ 21.9 µM)
MIC Coagulase Negative Staphylococcus (GC 4551) ([2]; strain GC 4551): 64 mg/L (≈ 43.8 µM)
MIC Coagulase Negative Staphylococcus (GC 6257) ([2]; strain GC 6257): 64 mg/L (≈ 43.8 µM)
MIC Streptococcus agalactiae (GC 4564) [3]: 64 mg/L (≈ 43.8 µM)
MIC Streptococcus pneumoniae (ATCC 6301) [3]: 32 mg/L (≈ 21.9 µM)
MIC Streptococcus pneumoniae (GC 1894) [3]: 32 mg/L (≈ 21.9 µM)
MIC Streptococcus pneumoniae (GC 4565) [3]: 64 mg/L (≈ 43.8 µM)
MIC Streptococcus pyogenes (GC 4563) [3]: 64 mg/L (≈ 43.8 µM)
MIC Streptococcus pneumoniae (ATCC 6301) ([3]; strain ATCC 6301): 32 mg/L (≈ 21.9 µM)
MIC Streptococcus pneumoniae (GC 1894) ([3]; strain GC 1894): 32 mg/L (≈ 21.9 µM)
MIC Streptococcus pyogenes (GC 4563) ([3]; strain GC 4563): 64 mg/L (≈ 43.8 µM)
MIC Streptococcus agalactiae (GC 4564) ([3]; strain GC 4564): 64 mg/L (≈ 43.8 µM)
MIC Streptococcus pneumoniae (GC 4565) ([3]; strain GC 4565): 64 mg/L (≈ 43.8 µM)
MIC Escherichia coli (ATCC 25922) [4]: >128 mg/L
MIC Escherichia coli (GC 4559) [4]: >128 mg/L
MIC Escherichia coli (GC 4560) [4]: 32 mg/L (≈ 21.9 µM)
SMILES: CC(c1ccccc1)C1NC(=O)CNC(=O)C(CO)NC(=O)C(CC2CNC(=N)N2C2OC(CO)C(O)C(O)C2O)NC(=O)C(CC2CNC(=N)N2)NC(=O)C(Cc2ccc(OC3OC(CO)C(OC4OC(CO)C(O)C(OCc5ccc(OCc6ccccc6)cc5)C4O)C(O)C3O)cc2)NC1=O (centres unmarked) [Example 246b]
MIC Staphylococcus haemolyticus (GC 4546) [2]: 128 mg/L (≈ 87.7 µM)
MIC Staphylococcus haemolyticus (GC 4546) ([2]; strain GC 4546): 128 mg/L (≈ 87.7 µM)

MIC Enterococcus avium (GC 4558) [1]: 64 mg/L (≈ 43.8 µM)
MIC Enterococcus faecalis (ATCC 29212) [1]: >128 mg/L
MIC Enterococcus faecalis (GC 2242) [1]: >128 mg/L
MIC Enterococcus faecalis (GC 2691) [1]: >128 mg/L
MIC Enterococcus faecalis (GC 3059) [1]: >128 mg/L
MIC Enterococcus faecalis (GC 4552) [1]: >128 mg/L
MIC Enterococcus faecalis (GC 4553) [1]: 128 mg/L (≈ 87.7 µM)
MIC Enterococcus faecalis (GC 4554) [1]: >128 mg/L
MIC Enterococcus faecalis (GC 6189) [1]: >128 mg/L
MIC Enterococcus faecium (GC 2243) [1]: >128 mg/L
MIC Enterococcus faecium (GC 4556) [1]: >128 mg/L
MIC Enterococcus faecium (GC 4557) [1]: 128 mg/L (≈ 87.7 µM)
MIC Enterococcus faecalis (ATCC 29212) ([1]; strain ATCC 29212): >128 mg/L
MIC Enterococcus faecalis (GC 2242) ([1]; strain GC 2242): >128 mg/L
MIC Enterococcus faecium (GC 2243) ([1]; strain GC 2243): >128 mg/L
MIC Enterococcus faecalis (GC 2691) ([1]; strain GC 2691): >128 mg/L
MIC Enterococcus faecalis (GC 3059) ([1]; strain GC 3059): >128 mg/L
MIC Enterococcus faecalis (GC 4552) ([1]; strain GC 4552): >128 mg/L
MIC Enterococcus faecalis (GC 4553) ([1]; strain GC 4553): 128 mg/L (≈ 87.7 µM)
MIC Enterococcus faecalis (GC 4554) ([1]; strain GC 4554): >128 mg/L
MIC Enterococcus faecium (GC 4556) ([1]; strain GC 4556): >128 mg/L
MIC Enterococcus faecium (GC 4557) ([1]; strain GC 4557): 128 mg/L (≈ 87.7 µM)
MIC Enterococcus avium (GC 4558) ([1]; strain GC 4558): 64 mg/L (≈ 43.8 µM)
MIC Enterococcus faecalis (GC 6189) ([1]; strain GC 6189): >128 mg/L
MIC Coagulase Negative Staphylococcus (GC 4547) [2]: >128 mg/L
MIC Coagulase Negative Staphylococcus (GC 4548) [2]: >128 mg/L
MIC Coagulase Negative Staphylococcus (GC 4549) [2]: >128 mg/L
MIC Coagulase Negative Staphylococcus (GC 4551) [2]: >128 mg/L
MIC Coagulase Negative Staphylococcus (GC 6257) [2]: >128 mg/L
MIC Staphylococcus aureus (ATCC 29213) [2]: >128 mg/L
MIC Staphylococcus aureus (GC 1131) [2]: >128 mg/L
MIC Staphylococcus aureus (GC 3051) [2]: >128 mg/L
MIC Staphylococcus aureus (GC 3053) [2]: >128 mg/L
MIC Staphylococcus aureus (GC 4541) [2]: >128 mg/L
MIC Staphylococcus aureus (GC 4542) [2]: >128 mg/L
MIC Staphylococcus aureus (GC 4544) [2]: >128 mg/L
MIC Staphylococcus aureus (GC 4545) [2]: >128 mg/L
MIC Staphylococcus aureus-SMITH (GC 4543) [2]: >128 mg/L
MIC Staphylococcus aureus (ATCC 29213) ([2]; strain ATCC 29213): >128 mg/L
MIC Staphylococcus aureus (GC 1131) ([2]; strain GC 1131): >128 mg/L
MIC Staphylococcus aureus (GC 3051) ([2]; strain GC 3051): >128 mg/L
MIC Staphylococcus aureus (GC 3053) ([2]; strain GC 3053): >128 mg/L
MIC Staphylococcus aureus (GC 4541) ([2]; strain GC 4541): >128 mg/L
MIC Staphylococcus aureus (GC 4542) ([2]; strain GC 4542): >128 mg/L
MIC Staphylococcus aureus-SMITH (GC 4543) ([2]; strain GC 4543): >128 mg/L
MIC Staphylococcus aureus (GC 4544) ([2]; strain GC 4544): >128 mg/L
MIC Staphylococcus aureus (GC 4545) ([2]; strain GC 4545): >128 mg/L
MIC Coagulase Negative Staphylococcus (GC 4547) ([2]; strain GC 4547): >128 mg/L
MIC Coagulase Negative Staphylococcus (GC 4548) ([2]; strain GC 4548): >128 mg/L
MIC Coagulase Negative Staphylococcus (GC 4549) ([2]; strain GC 4549): >128 mg/L
MIC Coagulase Negative Staphylococcus (GC 4551) ([2]; strain GC 4551): >128 mg/L
MIC Coagulase Negative Staphylococcus (GC 6257) ([2]; strain GC 6257): >128 mg/L
MIC Streptococcus agalactiae (GC 4564) [3]: >128 mg/L
MIC Streptococcus pneumoniae (ATCC 6301) [3]: 128 mg/L (≈ 87.7 µM)
MIC Streptococcus pneumoniae (GC 1894) [3]: 64 mg/L (≈ 43.8 µM)
MIC Streptococcus pneumoniae (GC 4565) [3]: 128 mg/L (≈ 87.7 µM)
MIC Streptococcus pyogenes (GC 4563) [3]: >128 mg/L
MIC Streptococcus pneumoniae (ATCC 6301) ([3]; strain ATCC 6301): 128 mg/L (≈ 87.7 µM)
MIC Streptococcus pneumoniae (GC 1894) ([3]; strain GC 1894): 64 mg/L (≈ 43.8 µM)
MIC Streptococcus pyogenes (GC 4563) ([3]; strain GC 4563): >128 mg/L
MIC Streptococcus agalactiae (GC 4564) ([3]; strain GC 4564): >128 mg/L
MIC Streptococcus pneumoniae (GC 4565) ([3]; strain GC 4565): 128 mg/L (≈ 87.7 µM)
MIC Escherichia coli (ATCC 25922) [4]: >128 mg/L
MIC Escherichia coli (GC 4559) [4]: >128 mg/L
MIC Escherichia coli (GC 4560) [4]: 32 mg/L (≈ 21.9 µM)
SMILES: CC(c1ccccc1)C1NC(=O)CNC(=O)C(CO)NC(=O)C(CC2CNC(=N)N2C2OC(CO)C(O)C(O)C2O)NC(=O)C(CC2CNC(=N)N2)NC(=O)C(Cc2ccc(OC3OC(CO)C(OC4OC(CO)C(O)C(O)C4OCc4ccc(OCc5ccccc5)cc4)C(O)C3O)cc2)NC1=O (centres unmarked) [Example 246c]
MIC Staphylococcus haemolyticus (GC 4546) [2]: >128 mg/L
MIC Staphylococcus haemolyticus (GC 4546) ([2]; strain GC 4546): >128 mg/L
